These results are taken from ChEMBL document CHEMBL1201862, “PubChem BioAssay data set” (2004).

What all share (test): NCI-60 cell line screen, 48 h
Assay [1] relates to DLD-1.
Assay [2] concerns DMS-114.
The test system of assay [3] is DMS-273.
In assay [4] the test system is HOP-18.
Assay [5] has as its system LXFL 529.
The subject of assay [6] is M19-MEL.
In assay [7] the test system is RXF 631.
The test system of assay [8] is SNB-78.
Assay [9] deals with XF498.

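Where inhibition never reached the appropriate level, the endpoint shown equals the highest concentration tested. Otherwise, values were interpolated linearly from a five-concentration, 48-hour dose response in 96-well plates. GI50 is the concentration that inhibits growth by half.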 The source made the active and inactive calls. Rule as the data show it: active = GI50 up to about 1.1 µM and inactive = higher. Bounds are passed on as bounds.

Take `COC(=O)[C@H]1COC(=S)N1C(=O)[C@@H](C)[C@H](O)C(C)C`: the GI50 in assay [1] is > 100 µM (inactive); in [2] it was 84.7 µM (inactive); in assay [3], > 100 µM (inactive); in [4], > 100 µM (inactive); in assay [5], > 100 µM (inactive); in assay [6], > 100 µM (inactive). Besides, the GI50 in assay [7], in assay [8] and in assay [9] was > 100 µM (inactive) in each case.

With `COC(=O)C(C(=O)C(=O)Nc1ccc(N)cc1[N+](=O)[O-])c1nc2ccc(Cl)cc2nc1O` (centres undefined), the GI50 in assay [1] was > 100 µM (inactive); in assay [2], > 100 µM (inactive); in assay [3], > 100 µM (inactive); in [4] it was 72.3 µM (inactive); in [6] it was > 100 µM (inactive); in assay [8], > 100 µM (inactive). The GI50 in [9] was 70.8 µM (inactive).

As for `O=C(CC1Sc2ccccc2NC1=O)Nc1cc(Cl)ccc1Cl` (centres undefined), the GI50 in [1], in assay [2], in [3], in [5], in assay [6] and in assay [7] was > 100 µM (inactive) each time. The GI50 in assay [8] was > 100 µM (inactive).

Regarding `O=C(CCc1nnc(S)[nH]1)Nc1cc(Cl)ccc1Cl`, the GI50 in assay [1], in [2], in assay [3], in [4], in assay [5] and in assay [6] was > 100 µM (inactive) each time. For the same compound, the GI50 in assay [7] is > 100 µM (inactive).

`Cc1nc(N)nc(N)c1-c1ccc(Cl)c(Cl)c1` [METOPRINE]: the GI50 in assay [1] is 0.427 µM (active); in assay [2], 0.149 µM (active); in assay [3], 0.157 µM (active); in assay [4] it was 25.8 µM (inactive); in assay [5] it was 0.404 µM (active); in assay [6], 2.36 µM (inactive). For the same compound, the GI50 in assay [8] is 26.3 µM (inactive); in [9] it was 34.8 µM (inactive).

In the case of `Cc1cccc(C(C)(C)C)c1NC(=O)CC1C(=O)Nc2ccccc2S1(=O)=O` (centres undefined), the GI50 is 5.5 µM (inactive) in assay [1]; 4.25 µM (inactive) in [3]; 12 µM (inactive) in assay [5]; 12.4 µM (inactive) in [6]; 8.24 µM (inactive) in assay [8]; 11.1 µM (inactive) in assay [9].

On to `COc1ccc(C2S/C(=C\c3ccccc3)C(=O)N2NC(=O)Cc2ccccc2)cc1` (centres undefined), for which the GI50 in [1], in assay [3], in assay [4], in assay [5] and in assay [6] was > 100 µM (inactive) each time.

Regarding `CC(=O)OC(C)(C)/C=C/C(=O)[C@](C)(O)[C@H]1[C@H](O)C[C@@]2(C)[C@@H]3CC=C4[C@@H](C[C@H](O)[C@H](O)C4(C)C)[C@]3(C)C(=O)C[C@]12C`, the GI50 in assay [1] is 0.274 µM (active); in [2], 0.324 µM (active); in assay [3], 0.421 µM (active); in assay [4] it was 1.05 µM (active); in assay [5], 0.347 µM (active); in assay [6] it was 0.515 µM (active). Also, the GI50 is 0.679 µM (active) in [7], 0.453 µM (active) in assay [8] and 0.422 µM (active) in assay [9].

`C[C@]12CCc3nonc3C1CC[C@@H]1C2CC[C@]2(C)NC(=O)CCC12` (some centres undefined): the GI50 in assay [3], in assay [4], in assay [5], in assay [6], in assay [7] and in assay [8] was > 100 µM (inactive) throughout. Further, the GI50 in assay [9] was > 100 µM (inactive).

As to `ClCCNCCNCCCl.ClCCNCCNCCCl.[O-][Cl+3]([O-])([O-])O`, the GI50 is 18.5 µM (inactive) in assay [1]; 23.9 µM (inactive) in assay [2]; 27.5 µM (inactive) in [3]; 24.3 µM (inactive) in [4]; 17.2 µM (inactive) in assay [5]; 27.2 µM (inactive) in assay [6]. In addition, the GI50 in assay [8] is 44.6 µM (inactive).

Consider `CCCCCCCCCCCCCCCC(=O)NCC(OCC)OCC`, for which the GI50 in assay [1], in assay [2], in assay [3], in assay [4], in [5] and in assay [6] was > 100 µM (inactive) each time. The GI50 in assay [7], in [8] and in assay [9] was > 100 µM (inactive) in each case.

Take `[O-][S+]1C(=c2ccc(=C3Sc4ccccc4S3)cc2)Sc2ccccc21` (centres undefined): the GI50 is 27.4 µM (inactive) in assay [1]; 20.8 µM (inactive) in assay [2]; 18.9 µM (inactive) in assay [3]; > 100 µM (inactive) in [4]; 51.2 µM (inactive) in assay [5]; 19.7 µM (inactive) in assay [6]. Moreover, the GI50 in assay [8] is 53.3 µM (inactive).

Regarding `CC(C)NC(=O)OCc1nnn2c1C(OC(=O)NC(C)C)CC2` (centres undefined), the GI50 in assay [1], in assay [2], in assay [3], in [4], in [5] and in [6] was > 100 µM (inactive) each time. In addition, the GI50 in assay [7], in assay [8] and in assay [9] was > 100 µM (inactive) each time.

Consider `O=C(NC(=O)c1cc2cc(Br)cc(Br)c2oc1=O)Oc1ccccc1`, for which the GI50 in assay [1] was > 100 µM (inactive); in assay [2], 65.2 µM (inactive); in assay [3] it was > 100 µM (inactive); in assay [4], > 100 µM (inactive); in [5], > 100 µM (inactive); in assay [6], > 100 µM (inactive). Also, the GI50 in [8] was > 100 µM (inactive); in assay [9] it was 37.4 µM (inactive).

In the case of `C/C(O)=C1\CC2CN3CCc4c([nH]c5ccccc45)C3CC2CC1=O` (centres undefined), the GI50 in [1] is 40.6 µM (inactive); in [2], 46.2 µM (inactive); in [3] it was 57.4 µM (inactive); in assay [4], 52.8 µM (inactive); in [5], 34.4 µM (inactive); in [8], 32.9 µM (inactive). Moreover, in assay [9], the GI50 was 32 µM (inactive).

Regarding `O=C1OC2(OC2c2ccccc2)c2ccccc21` (centres undefined), the GI50 is > 100 µM (inactive) in assay [1]; 1.32 µM (inactive) in assay [2]; > 100 µM (inactive) in assay [3]; > 100 µM (inactive) in assay [5]; > 100 µM (inactive) in [6]; > 100 µM (inactive) in assay [9].

Turning to `N#C/N=C1\NC(Cc2ccccc2)C(=O)N1CCc1c[nH]c2ccccc12` (centres undefined), the GI50 in assay [1] was 33.9 µM (inactive); in assay [2], 29.3 µM (inactive); in assay [3], 27.7 µM (inactive); in assay [5], 30.1 µM (inactive); in assay [6] it was 30.1 µM (inactive); in assay [8], 21.8 µM (inactive). Also, in [9], the GI50 is 27.4 µM (inactive).

Take `Cc1cc(C)nc(NS(=O)(=O)c2ccc(NC(=O)c3cccc4c(Nc5ccc(S(=O)(=O)N=C(N)N)cc5)c5ccc(Cl)cc5nc34)cc2)n1`: the GI50 is 17.7 µM (inactive) in assay [1]; 45.7 µM (inactive) in assay [2]; 27.6 µM (inactive) in [5]; 53.7 µM (inactive) in assay [6]; 28.6 µM (inactive) in assay [7]; 40.6 µM (inactive) in assay [8]. In [9], the GI50 is > 100 µM (inactive).

Consider `COC(=O)C(c1n[nH]c2ccccc12)C(C(=O)OC)c1n[nH]c2ccccc12` (centres undefined), for which the GI50 was 36.3 µM (inactive) in [1]; 29.4 µM (inactive) in assay [2]; 59.2 µM (inactive) in assay [4]; 26.2 µM (inactive) in assay [5]; > 100 µM (inactive) in assay [6]; > 100 µM (inactive) in [7]. Moreover, the GI50 is 38.1 µM (inactive) in assay [8] and 41.8 µM (inactive) in assay [9].

For the compound `Cc1c(C(=O)CC(=O)C(=O)Nc2ccc(Cl)cc2)[n+]([O-])c2ccccc2[n+]1[O-]`, the GI50 in [1] was > 100 µM (inactive); in assay [2] it was > 100 µM (inactive); in assay [3] it was > 100 µM (inactive); in [4], 75 µM (inactive); in [5] it was > 100 µM (inactive); in assay [6] it was > 100 µM (inactive). Also, the GI50 in assay [8] and in [9] was > 100 µM (inactive) throughout.

In the case of `CCOC(=O)c1nn2c(nc1=O)sc1ccc3ccccc3c12`, the GI50 in [1], in [2], in assay [3], in assay [4], in assay [5] and in [6] was > 100 µM (inactive) in each case. In addition, the GI50 in assay [8] is > 100 µM (inactive).

Regarding `CC(C)(C)N/N=C(\C(=O)Nc1nnc(S)[nH]1)C1C(=O)Nc2ccccc2[S+]1[O-]` (centres undefined), the GI50 in [1], in assay [2], in assay [3], in [4], in [5] and in [6] was > 100 µM (inactive) throughout. In addition, the GI50 in assay [7], in assay [8] and in assay [9] was > 100 µM (inactive) throughout.
